Test results reported in patent EP4781984A1 (Beyang Therapeutics Co., Ltd., priority 2023, dated 2025).
Values after ≈ are worked out from the molar mass of the structure shown.

Legend:
[1] = Thermodynamic solubility test; format: physicochemical; conditions: buffer solution, aqueous buffer, thermodynamic from solid; thermodynamic solubility, room temperature, 8 hours shaking; buffers pH 2.0, 6.5, 7.4 used, pH of the tabulated value not given
Experimental: Solubility Test of Compounds
Table 9. Reagents and Instruments
After sonication for 10 minutes, they were fixed on a shaker and shaken at room temperature for 8 hours. After shaking, they were sonicated for 10 minutes and centrifuged at 13000 rpm for 15 minutes. 0.1 mL of supernatant was aspirated into a new tube, rinsed with 5 mL of buffer by shaking, and the liquid was discarded. 0.5 mL of supernatant was transferred again to a new tube, centrifuged at 13000 rpm for 15 minutes, and the supernatant was taken (diluted with water if necessary) for LC-MS injection analysis. Sample concentrations were quantified using a 3-5 point calibration curve.

melanin = test: Compound binding to melanin; format: in vitro ADME; conditions: cuttlefish (Sepia officinalis), melanin suspension (1 mg/mL), percentage of free drug (not bound to melanin), 2 µM compound, melanin 1 mg/mL in PBS pH 7.4, 37°C
From the text: Detection of Compound Binding to Melanin
Pigmented ocular tissues contain melanin within intracellular melanosomes. Drugs bind to melanin to varying degrees, from no binding to extensive binding. Therefore, melanin binding is an important characteristic affecting ocular drug delivery and biodistribution. The ability of compounds to bind to melanin must be considered in ocular drug development.
Melanin derived from cuttlefish (Sepia officinalis) melanin was purchased from Sigma Aldrich (St Louis, MO).
First, prepare a 1 mg/mL melanin suspension in PBS (pH 7.4). As a matrix washing step, suspended particles were centrifuged at 3000 rpm for 5 minutes. The resulting pellet was resuspended in fresh PBS buffer, heated to 37°C with continuous shaking, and incubated for 1 hour. Accurately pipette 2 microliters of test compound stock solution (0.1 mM) into 98 microliters of melanin suspension (1 mg/mL), resulting in a final incubation concentration of 2 µM. Similarly, accurately pipette 2 microliters of stock solution (0.1 mM) into 98 microliters of PBS buffer (containing 0.1% BSA) as a blank control sample. Samples were incubated at 37°C for 2 hours on a shaker (80-90 rpm). Then centrifuged at room temperature. 50 microliters of supernatant was aspirated and added to 50 microliters of precipitation agent (containing internal standard). All samples above were subjected to protein precipitation, centrifuged, the supernatant was taken, diluted with water (if necessary), and then injected for analysis. Simultaneously, high-binding compounds Sunitinib and chloroquine, and the low-binding compound celecoxib were measured as positive controls. An LC-MS/MS analytical method for determining compound concentration was established. The ratio of analyte/internal standard peak areas (Aanalyte/AIS) measured in the samples, calibrated by the dilution factor, was used as the surrogate concentration for data processing. The binding rate of the compound to melanin (Fb) is calculated by the formula: Fb = 100−(Ctest)/(Ccontrol) × 100% [formula]
Ctest is the drug concentration of the compound in the melanin incubation sample or the peak area ratio of the test compound to the internal standard. Ccontrol is the drug concentration of the compound in the blank control sample or the peak area ratio of the test compound to the internal standard. Percentage of free drug (Fu%) = 100 - Fb The binding rates of the compounds of the present invention to melanin are shown in the table below: Table 11. Binding Rate of Compounds to Melanin

EGFR = target: T1, EGFR (Homo sapiens, UniProt P00533); test: Kinase inhibitory activity, Mobility Shift Assay (EGFR); format: biochemical
T1 construct: purchased Carna 08-115
Experimental: Assay for Inhibitory Activity of Compounds Against VEGFR and EGFR Kinases
This assay directly monitors the inhibitory activity of compounds on kinase phosphorylation by measuring non-phosphorylated and phosphorylated substrates in the kinase reaction using Mobility Shift Assays/IMAP™ analysis. Table 2. Reagents and Instruments
Kinase and DTT were added to 1X kinase buffer to form a 2.5X kinase solution; 10 µL of the 2.5X kinase solution was transferred to a 384-well reaction plate, and 1X kinase buffer was added to the negative control wells. The plate was incubated at room temperature for 10 minutes; FAM-labeled peptide, MgCl2, ATP, and other reagents were added to 1X kinase buffer to form a 2.5X substrate solution; 10 µL of the above 2.5X substrate solution was transferred to the 384-well reaction plate; the plate was incubated at 28°C for varying times, and then 25 µL of stop solution was added to the 384-well reaction plate to terminate the reaction. Conversion rate data were read on a CaliperEZ Reader II. […] IC50 values were fitted using XLFit excel add-in version 5.4.0.8. Y = Bottom + (Top−Bottom)/(1 + […]) [formula]
X is the log value of compound concentration, Y is the inhibition rate (% inhibition).

T1 sequence (P00533 25-1210): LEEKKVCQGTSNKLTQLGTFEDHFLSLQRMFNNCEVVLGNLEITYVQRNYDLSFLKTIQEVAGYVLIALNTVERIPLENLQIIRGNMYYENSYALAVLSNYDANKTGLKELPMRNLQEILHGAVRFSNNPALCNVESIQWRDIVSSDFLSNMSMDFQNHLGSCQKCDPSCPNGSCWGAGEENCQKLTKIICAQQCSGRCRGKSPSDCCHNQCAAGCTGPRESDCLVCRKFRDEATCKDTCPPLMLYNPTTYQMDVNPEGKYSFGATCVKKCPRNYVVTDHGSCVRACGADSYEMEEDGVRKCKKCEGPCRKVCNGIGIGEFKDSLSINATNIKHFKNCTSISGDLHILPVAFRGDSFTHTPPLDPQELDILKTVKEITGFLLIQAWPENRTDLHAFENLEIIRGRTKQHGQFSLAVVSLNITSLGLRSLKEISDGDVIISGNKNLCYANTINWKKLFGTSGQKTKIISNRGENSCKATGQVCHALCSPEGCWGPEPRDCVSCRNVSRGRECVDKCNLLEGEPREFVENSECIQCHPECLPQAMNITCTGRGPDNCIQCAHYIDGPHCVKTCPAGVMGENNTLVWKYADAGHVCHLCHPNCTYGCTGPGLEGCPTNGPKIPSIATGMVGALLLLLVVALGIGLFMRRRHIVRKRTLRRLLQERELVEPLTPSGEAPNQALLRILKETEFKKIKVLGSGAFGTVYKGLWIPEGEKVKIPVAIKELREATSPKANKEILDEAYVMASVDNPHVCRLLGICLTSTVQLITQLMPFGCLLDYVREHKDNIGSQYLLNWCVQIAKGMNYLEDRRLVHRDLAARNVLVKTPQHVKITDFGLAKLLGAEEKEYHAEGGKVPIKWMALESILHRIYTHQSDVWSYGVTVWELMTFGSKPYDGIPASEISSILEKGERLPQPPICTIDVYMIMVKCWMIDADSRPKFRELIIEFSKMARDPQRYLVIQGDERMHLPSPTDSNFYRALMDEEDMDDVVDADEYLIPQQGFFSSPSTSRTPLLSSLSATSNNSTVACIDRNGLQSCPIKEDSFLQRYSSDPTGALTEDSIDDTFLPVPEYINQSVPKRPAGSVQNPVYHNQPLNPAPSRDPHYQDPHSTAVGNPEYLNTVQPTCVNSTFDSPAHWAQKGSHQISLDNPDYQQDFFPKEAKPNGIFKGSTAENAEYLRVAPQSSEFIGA

| Compound | solubility at 8 h [1] [µg/mL] | fraction unbound at 2 h, 2 µM (melanin) | IC50 (EGFR) [µM] |
| --- | --- | --- | --- |
| O=C(NC1CC1)c1ccccc1Sc1ccc2c(/C=C/c3ccc(OCCN4CCCC4)cn3)n[nH]c2c1 [Compound I-8, N-cyclopropyl-2-((3-((E)-2-(5-(2-(pyrrolidin-1-yl)ethoxy)pyridin-2-yl)ethenyl)-1H-indazol-6-yl)thio)benzamide] | 1870 (≈ 3560 µM) | 0.01 to 0.05 |  |
| CNC(=O)c1ccccc1Sc1ccc2c(/C=C/c3cnn(CCN4CCCC4)c3)n[nH]c2c1 [Compound I-9] | 363 (≈ 768 µM) | 0.01 to 0.05 |  |
| CNC(=O)c1ccccc1Sc1ccc2c(/C=C/c3ccn(CCCN4CCCC4)n3)n[nH]c2c1 [Compound I-11] | 866 (≈ 1780 µM) | 0.01 to 0.05 |  |
| CNC(=O)c1ccccc1Sc1ccc2c(/C=C/c3cccc(OCCN4CCCC4)c3)n[nH]c2c1 [Compound I-15] | 78.8 (≈ 158 µM) | 0.01 to 0.05 |  |
| CNC(=O)c1ccccc1Sc1ccc2c(C#Cc3ccc(OCCN4CCCC4)cn3)n[nH]c2c1 [Compound I-16] | 27.2 (≈ 54.7 µM) | ≤ 0.01 |  |
| CNC(=O)c1ccccc1Sc1ccc2c(/C=C/c3cccc(OCCN4CCCC4)n3)n[nH]c2c1 [Compound I-17] | 278 (≈ 556 µM) | 0.01 to 0.05 |  |
| CNC(=O)c1ccccc1Sc1ccc2c(/C=C/c3ccnc(OCCN4CCCC4)c3)n[nH]c2c1 [Compound I-18] |  | 0.01 to 0.05 |  |
| CNC(=O)c1ccccc1Sc1ccc2c(/C=C/c3cc(OCCN4CCCC4)ccn3)n[nH]c2c1 [Compound I-20] | 128 (≈ 256 µM) | 0.01 to 0.05 |  |
| CNC(=O)c1ccccc1Sc1cnc2c(/C=C/c3ccccn3)n[nH]c2c1 [Compound I-21, N-methyl-2-({3-[(E)-2-(pyridin-2-yl)ethenyl]-1H-pyrazolo[4,3-b]pyridin-6-yl}sulfanyl)benzamide] | 0.9 (≈ 2.32 µM) | 0.01 to 0.05 |  |
| CNC(=O)c1cccc(F)c1Sc1ccc2c(/C=C/c3ccc(OCCN4CCCC4)cn3)n[nH]c2c1 [Compound I-33, 3-fluoro-N-methyl-2-({3-[(E)-2-{5-[2-(pyrrolidin-1-yl)ethoxy]pyridin-2-yl}ethenyl]-1H-indazol-6-yl}sulfanyl)benzamide] | 57.7 (≈ 111 µM) | > 0.05 |  |
| CNC(=O)c1cc(F)ccc1Sc1ccc2c(/C=C/c3ccc(OCCN4CCCC4)cn3)n[nH]c2c1 [Compound I-34, 5-fluoro-N-methyl-2-({3-[(E)-2-{5-[2-(pyrrolidin-1-yl)ethoxy]pyridin-2-yl}ethenyl]-1H-indazol-6-yl}sulfanyl)benzamide] | 19.3 (≈ 37.3 µM) | > 0.05 |  |
| CNC(=O)c1ccc(F)cc1Sc1ccc2c(/C=C/c3ccc(OCCN4CCCC4)cn3)n[nH]c2c1 [Compound I-35, 4-fluoro-N-methyl-2-({3-[(E)-2-{5-[2-(pyrrolidin-1-yl)ethoxy]pyridin-2-yl}ethenyl]-1H-indazol-6-yl}sulfanyl)benzamide] | 26.6 (≈ 51.4 µM) | 0.01 to 0.05 |  |
| O=C(NC1CC1)c1ccccc1Sc1ccc2c(/C=C/c3ccc(CN4CCCC4)cn3)n[nH]c2c1 [Compound I-41] |  | > 0.05 |  |
| O=C(NC1CC1)c1ccccc1Sc1ccc2c(/C=C/c3cnn(CCCN4CCCC4)c3)n[nH]c2c1 [Compound I-43] | 71.6 (≈ 140 µM) | 0.01 to 0.05 |  |
| CN(C)CCOc1ccc(/C=C/c2n[nH]c3cc(Sc4ccccc4C(=O)NC4CC4)ccc23)nc1 [Compound I-51, N-cyclopropyl-2-({3-[(E)-2-{5-[2-(dimethylamino)ethoxy]pyridin-2-yl}ethenyl]-1H-indazol-6-yl}sulfanyl)benzamide] |  | 0.01 to 0.05 |  |
| CCN(CC)CCOc1ccc(/C=C/c2n[nH]c3cc(Sc4ccccc4C(=O)NC4CC4)ccc23)nc1 [Compound I-52] |  | > 0.05 |  |
| O=C(NC1CC1)c1ccccc1Sc1ccc2c(/C=C/c3ccc(OCCN4CCCCC4)cn3)n[nH]c2c1 [Compound I-53] |  | > 0.05 |  |

| Compound | solubility at 8 h [1] [µg/mL] | fraction unbound at 2 h, 2 µM (melanin) | IC50 (EGFR) [µM] |
| --- | --- | --- | --- |
| O=C(NC1CC1)c1ccccc1Sc1ccc2c(/C=C/c3cnn(CCN4CCCC4)c3)n[nH]c2c1 [Compound I-61] |  | 0.01 to 0.05 |  |
| CCNC(=O)c1ccccc1Sc1ccc2c(/C=C/c3ccc(CN4CCCC4)cn3)n[nH]c2c1 [Compound I-73, N-ethyl-2-({3-[(E)-2-{5-[(pyrrolidin-1-yl)methyl]pyridin-2-yl}ethenyl]-1H-indazol-6-yl}thio)benzamide] |  | 0.01 to 0.05 |  |
| CNC(=O)c1cccc(F)c1Sc1ccc2c(/C=C/c3cnn(CCCN4CCCC4)c3)n[nH]c2c1 [Compound I-76] | 1770 (≈ 3520 µM) | > 0.05 |  |
| CCN(CC)Cc1ccc(/C=C/c2n[nH]c3cc(Sc4ccccc4C(=O)NC4CC4)ccc23)nc1 [Compound I-78] | 27.6 (≈ 55.5 µM) | 0.01 to 0.05 |  |
| O=C(NC1CC1)c1cc(F)ccc1Sc1ccc2c(/C=C/c3ccc(CN4CCCC4)cn3)n[nH]c2c1 [Compound I-80] | 199 (≈ 387 µM) | 0.01 to 0.05 |  |
| CCN(CC)Cc1ccc(/C=C/c2n[nH]c3cc(Sc4cc(F)ccc4C(=O)NC4CC4)ccc23)nc1 [Compound I-83, N-cyclopropyl-4-fluoro-2-({3-[(E)-2-{5-[(diethylamino)methyl]pyridin-2-yl}ethenyl]-1H-indazol-6-yl}thio)benzamide] | 79.6 (≈ 154 µM) | > 0.05 |  |
| CCN(CC)Cc1ccc(/C=C/c2n[nH]c3cc(Sc4ccccc4C(=O)NC)ccc23)nc1 [Compound I-90] | 31.9 (≈ 67.6 µM) | 0.01 to 0.05 |  |
| CCN(CC)Cc1ccc(/C=C/c2n[nH]c3cc(Sc4c(F)cccc4C(=O)NC)ccc23)nc1 [Compound I-91] | 1650 (≈ 3370 µM) | 0.01 to 0.05 |  |
| CCN(CC)Cc1ccc(/C=C/c2n[nH]c3cc(Sc4ccc(F)cc4C(=O)NC)ccc23)nc1 [Compound I-93] |  | 0.01 to 0.05 |  |
| CNC(=O)c1ccc(F)cc1Sc1ccc2c(/C=C/c3ccc(CN4CCCC4)cn3)n[nH]c2c1 [Compound I-94] | 31.8 (≈ 65.2 µM) | 0.01 to 0.05 |  |
| CCN(CC)Cc1ccc(/C=C/c2n[nH]c3cc(Sc4ccccc4C(=O)NCCF)ccc23)nc1 [Compound I-98, 2-({3-[(E)-2-{5-[(diethylamino)methyl]pyridin-2-yl}ethenyl]-1H-indazol-6-yl}sulfanyl)-N-(2-fluoroethyl)benzamide] | 456 (≈ 905 µM) | > 0.05 |  |
| CCN(CC)Cc1ccc(/C=C/c2n[nH]c3cc(Sc4ccccc4C(=O)NCC(F)F)ccc23)nc1 [Compound I-99] | 341 (≈ 654 µM) | > 0.05 |  |
| CCN(CC)Cc1ccc(/C=C/c2n[nH]c3cc(Sc4ccccc4C(=O)NCC(F)(F)F)ccc23)nc1 [Compound I-100] | 209 (≈ 387 µM) | > 0.05 |  |
| CNC(=O)c1ccccc1Sc1ccc2c(/C=C/c3ccc(CCN4CCCC4)cn3)n[nH]c2c1 [Compound I-107] |  | 0.01 to 0.05 |  |
| O=C(NC1CC1)c1ccccc1Sc1ccc2c(/C=C/c3cc(CN4CCCC4)ccn3)n[nH]c2c1 [Compound I-115] |  | 0.01 to 0.05 |  |
| CCNC(=O)c1cc(F)ccc1Sc1ccc2c(/C=C/c3cc(CCCN4CCCC4)ccn3)n[nH]c2c1 [Compound I-122] |  |  | > 60 |
